Values of other authors, collected in article PMC7751758, “Repurposing Sigma-1 Receptor Ligands for COVID-19 Therapy?” (Frontiers in Pharmacology, 2020).

Test system: SARS-CoV
Settings: mouse, in vivo

SMILES: CN(C)CCCN1c2ccccc2Sc2ccc(Cl)cc21 [Chlorpromazine]
- clinical disease: did protect mice from clinical disease
- virus replication in lungs: did not inhibit virus replication in lungs

SMILES: CCN(CC)CCCC(C)Nc1ccnc2cc(Cl)ccc12 (stereo not shown) [Chloroquine]
- clinical disease: did protect mice from clinical disease
- virus replication in lungs: did not inhibit virus replication in lungs
